This note sets out measurements from patent US8329940B2, “18β-glycyrrhetinic acid derivatives and synthetic method thereof” (Kaohsiung Medical University, priority 2009, dated 2012).

Read-outs that look alike come from different tables or passages of the source. Some results are limits rather than exact numbers.

Series [1] concerns superoxide anion formation from rat neutrophils stimulated with fMLP/CB. The experiment in a line: Superoxide anion formation in rat neutrophils stimulated by fMLP/CB. The series is classed as cell-based. The following applies: for IC50: rat neutrophils stimulated with fMLP (0.3 μM)/CB (5 μg/mL), 30 min; for % of inhibition of superoxide anion formation, fMLP/CB (in parentheses): at the highest concentration, rat neutrophils. On the procedure: Compound stock solution (30 mM in DMSO) is prepared and stored at −25° C. before experiment. In the superoxide anion generation experiments, neutrophils isolated from the peripheral blood of the rats are stimulated with formyl-Met-Leu-Phe (fMLP, 0.3 μM)/Cytochalasin B (CB, 5 μg/mL) for 30 min in the presence of cytochrome c, and the superoxide anion generation is measured in terms of superoxide dismutase-inhibitable cytochrome c reduction.

Series [2] concerns accumulation of NO2− in RAW 264.7 cells stimulated with LPS. The experiment in a line: Nitrite (NO2−) accumulation in RAW 264.7 cells stimulated with LPS (Griess reaction). The note with it: for IC50: RAW 264.7 cells stimulated with LPS, 24 h, read-out: IC50 (B) accumulation of NO2− in RAW 264.7; for % of inhibition of NO2− accumulation (in parentheses): at the highest concentration, RAW 264.7, LPS. Type of series: cell-based, Murine. Here is the method: (§1) Nitrite is a stable metabolite of NO in the media based on Griess reaction. […] To determine whether the inhibition of NO production in RAW 264.7 cells is attributed to the decrease of iNOS protein expression, Western blotting analysis is performed. Unstimulated cells expressed very low level of iNOS protein, whereas LPS 50 ng/mL induced a large amount of iNOS protein expression. […] Thus, the blockade of iNOS transcription has a critical role as evidenced from the parallelism of the inhibition of NO production and iNOS protein expression by compound 14.
In general terms: Nitrite, measured by Griess reagent, commonly stands in for NO production.

For a further series, the system named is plasmid pBR322DNA. The experiment in a line: Inhibition of oxidative DNA damage by O2− from xanthine/xanthine oxidase (agarose gel electrophoresis). The note with it: 500 μM compound, xanthine (2 mM)/xanthine oxidase (0.7 U/mL), 20 min, 37° C. On the procedure:
A mixture of the plasmid pBR322DNA ([…]) and xanthine (2 mM)/xanthine oxidase (0.7 U/mL) in 10 mM phosphate buffer (pH 7.4) is incubated for 20 min with 500 μlM of superoxide dismutase, quercetin, or compounds 2, 6, 7, 13, 14, and 20 in a total volume of 20 μL at 37° C., respectively. After incubating for 20 min, a 15 μL aliquot of mixture is loaded into 1.0% agarose gel containing ethidium bromide (0.05 μg/mL) in Tris-acetate-ethylenediaminetetraacetic acid (EDTA) buffer. The electrophoresis is carried out for 30 min at 100 V. Then the gels are illuminated with UV light and photographed.
ROS have been known to damage many biological macromolecules, for instance, with DNA being a significant target. The ability of 18β-GA derivatives to inhibit the DNA damage caused by O2^− (generated by xanthine (XA)/XO) is studied in vitro by agarose gel electrophoresis. […] For determined the antioxidant activities of these compounds, the radical scavenging activities and XO inhibitory activities of these compounds are analyzed.

Series [3] addresses xanthine oxidase (XO) (Homo sapiens, UniProt P47989). The experiment in a line: Xanthine oxidase activity assay. Type of series: biochemical. The following applies: xanthine as substrate, 25° C. On the procedure:
(§2) The xanthine oxidase activity with xanthine as the substrate is measured at 25° C., according to the protocol of Kong and associates (Cell Mol. […] After preincubation at 25° C. for 15 min, the reaction is initiated by addition of 60 μL of substrate solution (150 μM xanthine in the same buffer). The reaction is monitored at 295 nm. The xanthine oxidase activity is expressed as micromoles of uric acid per minute.

Series [4] deals with superoxide anion formation from rat neutrophils stimulated with PMA. The experiment in a line: Superoxide anion formation in rat neutrophils stimulated by PMA. The note with it: for IC50: rat neutrophils stimulated with PMA; for % of inhibition of superoxide anion formation, PMA (in parentheses): at the highest concentration, rat neutrophils. Type of series: cell-based.
Series [5] addresses xanthine oxidase (XO). The experiment in a line: Xanthine oxidase activity assay. The following applies: xanthine as substrate, 25° C., 295 nm. The series is classed as biochemical. Here is the method:
as §2

Series [6] relates to TNF-a formation from RAW 264.7 cells stimulated with LPS. The following applies: for % of inhibition of TNF-a formation (in parentheses): at the highest concentration, RAW 264.7, LPS.
Protocol: Nitric oxide (NO) in the cell medium is determined by the Griess reaction. In Western blot analysis, cells are washed with PBS twice and harvested in Laemmli sodium dodecyl sulfate (SDS) sample buffer to lyse the cells. Cell lysates are separated by 10% SDS-PAGE, and electrophoretically transferred to the poly(vinylidene difluoride) membranes. Membranes are blocked for 1 h at room temperature in TBST buffer (10 mM Tris-HCl, pH 8.0, 150 mM NaCl and 0.1% Tween 20) containing 5% nonfat milk. Membranes are washed with TBST buffer and then incubated with a monoclonal anti-iNOS antibody (1:1000 dilution) for 1 h. Following washed with TBST buffer, horseradish peroxidase-labeled anti-mouse IgG (1:10,000 dilution) is added therein at room temperature for 1 h. The blots are developed using ECL Western blotting reagents. Secretory levels of TNF-a in culture supernatants are determined by the EIA kit according to the procedure of manufacturer.
The subject of another series is iNOS protein expression. The experiment in a line: iNOS protein expression in LPS-stimulated RAW 264.7 cells (Western blot). The series is classed as cell-based, Murine. The note with it: RAW 264.7, LPS 50 ng/mL. On the procedure: as §1
The mark [7] stands for this setting: read-out: IC50 (C) TNF-a formation in RAW 264.7, RAW 264.7 cells stimulated with LPS.

Sequence of xanthine oxidase (XO) (Homo sapiens, UniProt P47989) (P47989 whole entry, species assumed): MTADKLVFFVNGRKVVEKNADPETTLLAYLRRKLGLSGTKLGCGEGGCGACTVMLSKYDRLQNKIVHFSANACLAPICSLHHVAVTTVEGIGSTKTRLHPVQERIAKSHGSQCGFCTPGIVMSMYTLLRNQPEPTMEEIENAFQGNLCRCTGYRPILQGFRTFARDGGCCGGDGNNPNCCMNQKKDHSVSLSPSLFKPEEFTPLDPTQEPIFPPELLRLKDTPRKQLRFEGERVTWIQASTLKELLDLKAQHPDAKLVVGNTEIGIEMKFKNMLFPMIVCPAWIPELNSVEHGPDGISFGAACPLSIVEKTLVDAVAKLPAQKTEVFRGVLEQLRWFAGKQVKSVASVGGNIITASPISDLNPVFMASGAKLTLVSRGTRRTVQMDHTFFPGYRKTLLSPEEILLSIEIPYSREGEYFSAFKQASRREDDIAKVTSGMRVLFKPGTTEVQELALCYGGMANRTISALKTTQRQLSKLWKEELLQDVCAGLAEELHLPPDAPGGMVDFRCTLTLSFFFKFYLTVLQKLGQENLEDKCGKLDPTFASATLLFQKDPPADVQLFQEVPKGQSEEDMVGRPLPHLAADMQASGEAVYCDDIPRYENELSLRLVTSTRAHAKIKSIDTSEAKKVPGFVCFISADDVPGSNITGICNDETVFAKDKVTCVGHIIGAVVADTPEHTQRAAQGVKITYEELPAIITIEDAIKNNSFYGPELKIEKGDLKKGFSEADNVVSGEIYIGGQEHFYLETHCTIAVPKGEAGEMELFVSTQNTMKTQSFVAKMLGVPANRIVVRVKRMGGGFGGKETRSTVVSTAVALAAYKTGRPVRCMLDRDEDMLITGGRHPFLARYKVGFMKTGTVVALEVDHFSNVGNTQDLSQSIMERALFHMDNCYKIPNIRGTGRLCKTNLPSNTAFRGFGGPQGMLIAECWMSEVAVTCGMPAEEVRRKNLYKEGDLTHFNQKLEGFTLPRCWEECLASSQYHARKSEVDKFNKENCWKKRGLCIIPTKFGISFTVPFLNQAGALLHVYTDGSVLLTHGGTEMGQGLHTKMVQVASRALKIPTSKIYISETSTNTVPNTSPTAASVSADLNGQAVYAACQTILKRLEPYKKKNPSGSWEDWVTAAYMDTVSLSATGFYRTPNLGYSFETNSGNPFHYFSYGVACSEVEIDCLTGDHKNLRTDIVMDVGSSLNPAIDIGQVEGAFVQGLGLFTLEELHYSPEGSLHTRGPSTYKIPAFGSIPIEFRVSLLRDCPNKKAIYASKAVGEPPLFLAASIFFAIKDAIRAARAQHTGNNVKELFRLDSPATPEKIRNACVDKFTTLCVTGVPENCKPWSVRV
Sequence of xanthine oxidase (XO) (P47989 whole entry, species assumed): as above

As for `CC1(C)C(=O)CC[C@]2(C)[C@H]3C(=O)C=C4[C@@H]5C[C@@](C)(C(=O)O)CC[C@]5(C)CC[C@@]4(C)[C@]3(C)CC[C@@H]12` [Compound 2], the IC50 (usually the concentration that gives 50% inhibition) in [1] is 10.3 ± 5.2 µM. In series [2], the IC50 is greater than 30 µM and the “% of inhibition of NO2− accumulation (in parentheses)” value (“% of inhibition of NO2− accumulation” for short) was 45.6 ± 9.1%. For the same molecule, the “inhibitory effect on NO accumulation in the media induced by LPS” value in series [2] (each at 30 μM, RAW 264.7) is reported as “about 40%”. Also, the “protective effect on oxidative DNA damage caused by O2−” value (shortened to “protective effect”) in the series on plasmid pBR322DNA was “significant protective effects”. Also, the “inhibition of XO activity” value against xanthine oxidase (XO) [3] was “weakly inhibit”.
Consider `COC(=O)C1(C)CCC2(C)CCC3(C)C(=CC(=O)C4C5(C)CCC(=O)OC(C)(C)C5CCC43C)C2C1` (stereo not drawn) [Compound 6, 3,4 lactone 30 methyl ester], for which the melting point – broadly, the temperature of the solid-liquid transition – lay in the range of 166 to 171 °C. This molecule registered an IC50 in series [4] (Neutrophil) of 12.9 ± 1.8 µM. Further, the “protective effect” value in the series with plasmid pBR322DNA is given as “significant protective effects”. In addition, the concentration for half-maximal inhibition (IC50) on xanthine oxidase (XO) [5] amounted to 132 ± 2.7 µM.
`C=C(C)C1CCC2(C)C(C(=O)C=C3C4CC(C)(C(=O)O)CCC4(C)CCC32C)C1(C)CCC(=O)O` (stereo not drawn) [Compound 7]: inhibition in series [1] was half-maximal at 7 ± 2 µM (IC50). Also, the “protective effect” value with plasmid pBR322DNA is “significant protective effects”. Also, the “inhibition of XO activity” value at xanthine oxidase (XO) [3] was “weakly inhibit”.
Regarding `C=C(C)C1CCC2(C)C(C(=O)C=C3C4CC(C)(C(=O)OCc5ccccc5)CCC4(C)CCC32C)C1(C)CCC(=O)OC` (stereo not drawn) [Compound 13], the melting point fell in the range of 32 to 38 °C. Also, it took 17 ± 1.5 µM to reach half-maximal inhibition in [4] (Neutrophil) (IC50). The IC50 in series [2] (Mus musculus, RAW264.7) was greater than 30 µM. In addition, the inhibition at 30 µM in series [2] (Mus musculus, RAW264.7, each at 30 μM, RAW 264.7, read-out: inhibitory effect on NO accumulation in the media induced by LPS) is roughly 40%. For the same molecule, the “% of inhibition of NO2− accumulation” value in series [2] is 44.5 ± 4.2%. In addition, in the series with plasmid pBR322DNA, the “protective effect” value is recorded as “significant protective effects”. Also, the IC50 at xanthine oxidase (XO) [5] was determined as 175 ± 0.9 µM. Further, in series [6] (Mus musculus, RAW264.7, read-out: IC50 (C) TNF-a formation in RAW 264.7), the IC50 is 13.7 ± 4.3 µM.
With `C=C(C)C1CCC2(C)C(C(=O)C=C3C4CC(C)(C(=O)NC(C)C)CCC4(C)CCC32C)C1(C)CCC(=O)OC` (stereo not drawn) [Compound 14], the melting point was 80 to 85 °C. This molecule returned an IC50 in [4] (Neutrophil) of 15.6 ± 1.7 µM. Further, in [2] (Mus musculus, RAW264.7), the IC50 turned out to be 13.1 ± 5 µM. In addition, in the series with iNOS protein expression, the “inhibition of iNOS protein expression” value is reported as “significantly inhibited the iNOS protein expression”. Also, the “protective effect” value in the series on plasmid pBR322DNA was “significant protective effects”. This molecule also gave a 50% inhibitory concentration (IC50) on xanthine oxidase (XO) [5] of 192 ± 2.7 µM.
For the molecule `CC1(C(=O)OCc2ccccc2)CCC2(C)CCC3(C)C(=CC(=O)C4C5(C)CCC(=O)OC(C)(C)C5CCC43C)C2C1` (stereo not drawn) [Compound 16], in series [1], the “% of inhibition of superoxide anion formation, fMLP/CB (in parentheses)” value (from here on “% of inhibition … fMLP/CB (in parentheses)”) is recorded as −22.9 ± 7.6% and the IC50 is greater than 30 µM. In series [4], the “% of inhibition of superoxide anion formation, PMA (in parentheses)” value (“% of inhibition … PMA (in parentheses)” for short) is recorded as −10.7 ± 10.2% and the half-maximal inhibitory concentration (IC50) was greater than 30 µM. For the same molecule, in series [2], the half-inhibitory concentration (IC50) was greater than 10 µM and the “% of inhibition of NO2− accumulation” value is on record as −2.3 ± 4.6%. In addition, in [6], the “% of inhibition of TNF-a formation (in parentheses)” value (“% of inhibition of TNF-a formation” for short) is 25.3 ± 9.9%. Also, the IC50 in [6] (setting [7]) is greater than 10 µM.
In the case of `CC(C)NC(=O)C1(C)CCC2(C)CCC3(C)C(=CC(=O)C4C5(C)CCC(=O)OC(C)(C)C5CCC43C)C2C1` (stereo not drawn) [Compound 18], the “% of inhibition … fMLP/CB (in parentheses)” value in series [1] was 2.7 ± 12.5%. The IC50 is greater than 30 µM in series [1], greater than 30 µM in series [4], greater than 10 µM in [2] and greater than 10 µM in [6] (setting [7]). The “% of inhibition … PMA (in parentheses)” value in series [4] was determined as 48.2 ± 8.4%. Further, the “% of inhibition of NO2− accumulation” value in series [2] came out at 30.0 ± 11.9%. In addition, the “% of inhibition of TNF-a formation” value in series [6] is on record as 9.7 ± 4.7%.
Take `CC1(C(=O)Nc2ccccc2)CCC2(C)CCC3(C)C(=CC(=O)C4C5(C)CCC(=O)OC(C)(C)C5CCC43C)C2C1` (stereo not drawn) [Compound 19]: in series [1], the “% of inhibition … fMLP/CB (in parentheses)” value is on record as −1.6 ± 4.4% and the IC50 is greater than 10 µM. Besides, in [4], the “% of inhibition … PMA (in parentheses)” value was 26.9 ± 3.0% and the IC50 is greater than 3 µM. In series [2], the IC50 is greater than 30 µM and the “% of inhibition of NO2− accumulation” value came out at 20.5 ± 2.7%. The “% of inhibition of TNF-a formation” value in series [6] stood at 45.2 ± 14.6%. In addition, the IC50 in [6] (setting [7]) is greater than 30 µM.
In series [1], `C=C(C)C1CCC2(C)C(C(=O)C=C3C4CC(C)(C(=O)NC(C)C)CCC4(C)CCC32C)C1(C)CCC(=O)O` (stereo not drawn) [Compound 20] showed an IC50 of 9.8 ± 5.2 µM. For the same molecule, the “protective effect” value with plasmid pBR322DNA is listed as “significant protective effects”. Besides, the “inhibition of XO activity” value against xanthine oxidase (XO) [3] is reported as “weakly inhibit”.
